Test results taken from ChEMBL document CHEMBL6074675, “4-Substituted-2-Thiazole Amides as Viral Replication Inhibitors of Alphaviruses” (J Med Chem, 2024).
The source made the active and inactive calls. The rule behind the calls is not given here.

How the values were obtained:
[1] = Cytotoxicity against human NHDF cells assessed as reduction in cell viability incubated for 24 hrs by CellTiter Glo luminescence assay; format: toxicity, cell-based
Chikungunya virus [2] = assay: Antiviral activity against Chikungunya virus 181/25 infected in human NHDF cells assessed as log reduction of virus titer at 10 uM treated with cells at 1 hr prior to infection and measured at 24 hrs post-infection by plaque assay; format: functional; details: time 25 hrs
[3] = Cytotoxicity against human NHDF cells deficient of IRF3 assessed as reduction in cell viability incubated for 72 hrs by CellTiter Glo luminescence assay; format: toxicity, cell-based
[4] = Kinetic solubility of the compound in simulated intestinal fluid at pH 7.5 by LC-MS analysis; format: physicochemical; details: read-out: Kinetic_solubility
[5] = Octanol/PBS buffer distribution coefficient, logD of the compound at pH 7.5 by LC-MS analysis; format: physicochemical
[6] = Half life of the compound in mouse liver microsomes in presence of NADPH by LC-MS/MS analysis; format: ADME, Microsome
[7] = Half life of the compound in human liver microsomes in presence of NADPH by LC-MS/MS analysis; format: ADME, Microsome
[8] = system: Venezuelan equine encephalitis virus; assay: Antiviral activity against VEEV TC-83 infected in human NHDF cells assessed as reduction of virus titer treated with cells at 1 hr prior to infection and measured at 24 hrs post-infection by plaque assay; format: functional; details: TC-83, NHDF, time 25 hrs
[9] = system: Venezuelan equine encephalitis virus; assay: Antiviral activity against VEEV TC-83 infected in human NHDF cells assessed as log reduction of virus titer at 10 uM treated with cells at 1 hr prior to infection and measured at 24 hrs post-infection by plaque assay; format: functional; details: time 25 hrs
West Nile virus [10] = assay: Antiviral activity against West Nile virus NY99 infected in human HEK293 cells assessed as reduction of virus load measured at 3 days post-infection by focus-forming assay; format: functional; details: NY99, HEK293, 72 h, time 3 day
West Nile virus [11] = assay: Antiviral activity against West Nile virus NY99 infected in human HEK293 cells assessed as log reduction of virus titer at 10 uM measured at 3 days post-infection by focus-forming assay; format: functional; details: time 3 day
dengue virus type 2 [12] = assay: Antiviral activity against Dengue virus 2 NGC infected in human HEK293 cells assessed as reduction of virus load measured at 3 days post-infection by focus-forming assay; format: functional; details: HEK293, 72 h, time 3 day
dengue virus type 2 [13] = assay: Antiviral activity against Dengue virus 2 NGC infected in human HEK293 cells assessed as log reduction of virus titer at 10 uM measured at 3 days post-infection by focus-forming assay; format: functional; details: time 3 day
Zika virus [14] = assay: Antiviral activity against Zika virus PRABC59 infected in human HEK293 cells assessed as reduction of virus load measured at 3 days post-infection by focus-forming assay; format: functional; details: PRABC59, HEK293, 72 h, time 3 day
Zika virus [15] = assay: Antiviral activity against Zika virus PRABC59 infected in human HEK293 cells assessed as log reduction of virus titer at 10 uM measured at 3 days post-infection by focus-forming assay; format: functional; details: time 3 day
[16] = Cytotoxicity against human HEK293 cells; format: toxicity, cell-based
[17] = target: Dihydroorotate dehydrogenase (quinone), mitochondrial (Homo sapiens) (UniProt Q02127); assay: Inhibition of human DHODH
Dihydroorotate dehydrogenase (quinone), mitochondrial (Homo sapiens), sequence (Q02127 whole entry): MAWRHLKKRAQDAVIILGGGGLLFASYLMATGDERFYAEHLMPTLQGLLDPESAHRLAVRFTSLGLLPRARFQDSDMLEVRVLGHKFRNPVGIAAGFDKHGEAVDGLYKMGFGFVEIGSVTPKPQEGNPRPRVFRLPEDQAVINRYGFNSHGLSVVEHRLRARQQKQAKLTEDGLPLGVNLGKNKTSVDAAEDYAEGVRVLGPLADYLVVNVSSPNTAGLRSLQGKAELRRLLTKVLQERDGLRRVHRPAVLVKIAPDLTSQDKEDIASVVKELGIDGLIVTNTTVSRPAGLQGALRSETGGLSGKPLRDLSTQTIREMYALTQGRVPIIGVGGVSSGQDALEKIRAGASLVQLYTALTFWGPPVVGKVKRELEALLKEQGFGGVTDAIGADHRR

Homo sapiens [18] = species on record: Homo sapiens; assay: Inhibition of Numb-asociated kinase (unknown origin) upto 10 uM relative to control
[19] = target: Epidermal growth factor receptor (Homo sapiens) (UniProt P00533); assay: Inhibition of EGFR (unknown origin) upto 10 uM relative to control
Epidermal growth factor receptor (Homo sapiens), sequence (P00533 whole entry): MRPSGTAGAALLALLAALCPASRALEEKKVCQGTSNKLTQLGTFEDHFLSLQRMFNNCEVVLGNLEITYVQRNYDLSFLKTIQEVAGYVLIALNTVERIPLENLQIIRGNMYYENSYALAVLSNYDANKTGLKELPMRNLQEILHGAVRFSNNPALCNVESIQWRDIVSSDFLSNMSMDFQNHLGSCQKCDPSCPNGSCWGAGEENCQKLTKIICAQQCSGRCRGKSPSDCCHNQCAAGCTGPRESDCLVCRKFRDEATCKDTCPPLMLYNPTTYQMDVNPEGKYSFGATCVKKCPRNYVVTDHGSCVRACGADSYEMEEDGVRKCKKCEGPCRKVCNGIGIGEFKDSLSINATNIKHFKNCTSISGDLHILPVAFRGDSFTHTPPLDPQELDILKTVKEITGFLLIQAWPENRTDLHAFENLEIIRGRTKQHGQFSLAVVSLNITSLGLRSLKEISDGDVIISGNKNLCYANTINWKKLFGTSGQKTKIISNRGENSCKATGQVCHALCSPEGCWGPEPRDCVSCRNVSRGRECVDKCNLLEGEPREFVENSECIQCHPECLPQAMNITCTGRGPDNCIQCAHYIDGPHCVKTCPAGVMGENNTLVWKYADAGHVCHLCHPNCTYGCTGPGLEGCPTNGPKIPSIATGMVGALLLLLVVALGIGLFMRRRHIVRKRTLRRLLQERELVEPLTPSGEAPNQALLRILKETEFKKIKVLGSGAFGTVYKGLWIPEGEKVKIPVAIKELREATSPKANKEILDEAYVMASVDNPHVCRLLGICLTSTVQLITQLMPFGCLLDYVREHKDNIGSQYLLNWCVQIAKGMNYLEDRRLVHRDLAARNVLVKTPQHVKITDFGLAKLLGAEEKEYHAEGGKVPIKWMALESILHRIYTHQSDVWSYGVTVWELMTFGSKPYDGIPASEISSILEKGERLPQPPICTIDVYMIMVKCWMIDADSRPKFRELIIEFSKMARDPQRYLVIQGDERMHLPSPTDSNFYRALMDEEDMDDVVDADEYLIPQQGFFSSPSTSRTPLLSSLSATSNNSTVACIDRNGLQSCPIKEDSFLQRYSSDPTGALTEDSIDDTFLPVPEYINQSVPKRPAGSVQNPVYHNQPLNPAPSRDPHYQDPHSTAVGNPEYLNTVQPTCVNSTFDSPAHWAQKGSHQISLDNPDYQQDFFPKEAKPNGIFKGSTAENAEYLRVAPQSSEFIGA

Homo sapiens [20] = species on record: Homo sapiens; assay: Inhibition of MAPK (unknown origin) upto 10 uM relative to control
Homo sapiens [21] = species on record: Homo sapiens; assay: Inhibition of CDK (unknown origin) upto 10 uM relative to control
Homo sapiens [22] = species on record: Homo sapiens; assay: Inhibition of PI3K/Akt/mTOR (unknown origin) upto 10 uM relative to control
Heme oxygenase 1 = target: T1, Heme oxygenase 1 (Homo sapiens, UniProt P09601); assay: Inhibition of HO-1 (unknown origin)
T1 sequence (P09601 whole entry): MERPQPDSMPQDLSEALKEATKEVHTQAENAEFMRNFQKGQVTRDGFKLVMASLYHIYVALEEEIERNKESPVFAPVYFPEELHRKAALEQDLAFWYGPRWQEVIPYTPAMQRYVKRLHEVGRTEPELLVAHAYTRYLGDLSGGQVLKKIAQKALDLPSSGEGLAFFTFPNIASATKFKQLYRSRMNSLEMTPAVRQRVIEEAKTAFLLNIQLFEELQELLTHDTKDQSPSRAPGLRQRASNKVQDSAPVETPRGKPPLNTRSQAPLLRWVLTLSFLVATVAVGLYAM

[23] = Half life in C57BL/6 mouse at 1 mg/kg, iv; format: ADME, organism-based; details: in vivo
[24] = AUC in C57BL/6 mouse at 1 mg/kg, iv; format: ADME, organism-based; details: in vivo
[25] = Half life in C57BL/6 mouse at 40 mg/kg, ip; format: ADME, organism-based; details: in vivo
[26] = AUC in C57BL/6 mouse at 40 mg/kg, ip; format: ADME, organism-based; details: in vivo
[27] = Cmax in C57BL/6 mouse at 40 mg/kg, ip; format: ADME, organism-based; details: in vivo
[28] = Bioavailability in C57BL/6 mouse at 40 mg/kg, ip; format: ADME, organism-based; details: in vivo
[29] = Half life in C57BL/6 mouse at 40 mg/kg, po; format: ADME, organism-based; details: in vivo
[30] = AUC in C57BL/6 mouse at 40 mg/kg, po; format: ADME, organism-based; details: in vivo
[31] = Cmax in C57BL/6 mouse at 40 mg/kg, po; format: ADME, organism-based; details: in vivo
[32] = Oral bioavailability in C57BL/6 mouse at 40 mg/kg; format: ADME, organism-based; details: in vivo
[33] = Half life in C57BL/6 mouse at 40 mg/kg, sc; format: ADME, organism-based; details: in vivo
[34] = AUC in C57BL/6 mouse at 40 mg/kg, sc; format: ADME, organism-based; details: in vivo
[35] = Cmax in C57BL/6 mouse at 40 mg/kg, sc; format: ADME, organism-based; details: in vivo
[36] = Bioavailability in C57BL/6 mouse at 40 mg/kg, sc; format: ADME, organism-based; details: in vivo
Chikungunya virus [37] = assay: Antiviral activity against Chikungunya virus 181/25 infected in human NHDF cells assessed as inhibition of viral entry at 10 uM pretreated with virus for 2 hrs prior to infection and measured at 24 hrs post-infection by plaque assay; format: functional, organism-based; details: time 26.0 hrs
Chikungunya virus [38] = assay: Antiviral activity against Chikungunya virus 181/25 infected in human NHDF cells assessed as inhibition of infectious virus production at 10 uM treated with infectious cells at 6 hrs post-infection and measured at 48 hrs post-infection following culturing on Vero cells by limiting dilution plaque assay; format: functional, organism-based; details: time 42.0 hrs
Chikungunya virus [39] = assay: Antiviral activity against Chikungunya virus 181/25 infected in human NHDF cells assessed as inhibition of viral RNA synthesis by measuring 49S genomic RNA accumulation at 10 uM treated with cells for 1 hr prior to infection and measured at 12 hrs post-infection by DIG-labeled probe based Northern blot analysis; format: functional, organism-based; details: time 13.0 hrs
Chikungunya virus [40] = assay: Antiviral activity against Chikungunya virus 181/25 infected in human NHDF cells assessed as inhibition of viral RNA synthesis by measuring 26S subgenomic RNA accumulation at 10 uM treated with cells for 1 hr prior to infection and measured at 12 hrs post-infection by DIG-labeled probe based Northern blot analysis; format: functional, organism-based; details: time 13.0 hrs
Chikungunya virus [41] = assay: Antiviral activity against Chikungunya virus 181/25 infected in human NHDF cells assessed as inhibition of viral translation by measuring decrease in E2 protein expression at 10 uM cells treated with compound prior to infection and measured at 12 hrs post-infection by western blot analysis; format: functional, organism-based
Chikungunya virus [42] = assay: Antiviral activity against Chikungunya virus 181/25 infected in C57BL/6J mouse assessed as reduction in footpad swelling at 80 mg/kg, ip bid for 3 days infected with virus at 2 hrs after first compound treatment and measured at 12 hrs post-final treatment by digital caliper analysis; format: functional, organism-based; details: time 3.0 day
Chikungunya virus [43] = assay: Antiviral activity against Chikungunya virus 181/25 infected in C57BL/6J mouse assessed as reduction in viral load in ipsilateral ankle at 80 mg/kg, ip bid for 3 days infected with virus at 2 hrs after first compound treatment and measured at 12 hrs post-final treatment; format: functional, organism-based; details: time 3.0 day
Chikungunya virus [44] = assay: Antiviral activity against Chikungunya virus 181/25 infected in C57BL/6J mouse assessed as reduction in viral load in contralateral ankle at 80 mg/kg, ip bid for 3 days infected with virus at 2 hrs after first compound treatment and measured at 12 hrs post-final treatment; format: functional, organism-based; details: time 3.0 day
Chikungunya virus [45] = assay: Antiviral activity against Chikungunya virus 181/25 infected in C57BL/6J mouse assessed as reduction in viral dissemination to spleen at 80 mg/kg, ip bid for 3 days infected with virus at 2 hrs after first compound treatment and measured at 12 hrs post-final dose by RT-qPCR analysis; format: functional, organism-based; details: time 3.0 day
Chikungunya virus [46] = assay: Antiviral activity against Chikungunya virus 181/25 infected in C57BL/6J mouse assessed as reduction in viral dissemination to quadriceps at 80 mg/kg, ip bid for 3 days infected with virus at 2 hrs after first compound treatment and measured at 12 hrs post-final dose by RT-qPCR analysis; format: functional, organism-based; details: time 3.0 day
Chikungunya virus [47] = assay: Antiviral activity against Chikungunya virus 181/25 infected in human NHDF cells assessed as reduction of virus titer treated with cells at 1 hr prior to infection and measured at 24 hrs post-infection by plaque assay; format: functional, organism-based; details: 181/25, NHDF, time 25 hrs

## CSc1ncccc1C(=O)Nc1nc(-c2cccc(Nc3ccc(C#N)cc3)c2)cs1
[1]
  CC50 at 24 h: > 30000 nM
Chikungunya virus [2]
  log(activity): 8.7
[3]
  CC50 at 72 h: > 30000 nM
[4]
  solubility kinetic: < 1 µM
[5]
  logD: > 4.04
[6]
  half-life: 1.23 h
[7]
  half-life: 0.383 h
[8]
  EC90: 190 nM
[9]
  log(activity): 5.9
West Nile virus [10]
  EC90: 750 nM
West Nile virus [11]
  log(activity): 2.6
Dengue virus type 2 [12]
  EC90: 120 nM
Dengue virus type 2 [13]
  log(activity): 2.6
Zika virus [14]
  EC90: 170 nM
Zika virus [15]
  log(activity): 3.5
[16]
  CC50: > 30000 nM
[17]
  inhibition: Active
Homo sapiens [18]
  inhibition: < 30%
[19]
  inhibition: < 30%
Homo sapiens [20]
  inhibition: < 30%
Homo sapiens [21]
  inhibition: < 30%
Homo sapiens [22]
  inhibition: < 30%
Heme oxygenase 1
  EC50: > 50000 nM
[23]
  half-life: 1.78 h
[24]
  AUC: 821 ng·h/mL
[25]
  half-life: 3.52 h
[26]
  AUC: 30600 ng·h/mL
[27]
  Cmax: 2460 ng/mL
[28]
  bioavailability: 91%
[29]
  half-life: 2.38 h
[30]
  AUC: 15300 ng·h/mL
[31]
  Cmax: 2100 ng/mL
[32]
  bioavailability: 45%
[33]
  half-life: 5.7 h
[34]
  AUC: 1520 ng·h/mL
[35]
  Cmax: 142 ng/mL
[36]
  bioavailability: 5%
Chikungunya virus [37]
  Activity: inactive
Chikungunya virus [38]
  Activity: Active
Chikungunya virus [39]
  Activity: inactive
Chikungunya virus [40]
  Activity: inactive
Chikungunya virus [41]
  Activity: Active
Chikungunya virus [42]
  Activity: inactive
Chikungunya virus [43]
  Activity: inactive
Chikungunya virus [44]
  Activity: inactive
Chikungunya virus [45]
  Activity: Active
Chikungunya virus [46]
  Activity: Active

## CCOC(=O)N1CCN(c2cc(-c3ccc(C#N)cc3)cc(-c3csc(NC(=O)c4cccnc4SC)n3)c2)CC1
Chikungunya virus [47]
  EC90: 20 nM
[1]
  CC50 at 24 h: > 30000 nM
Chikungunya virus [2]
  log(activity): 8.1
[3]
  CC50 at 72 h: > 40000 nM
[4]
  solubility kinetic: < 1 µM
[5]
  logD: > 3.99
[6]
  half-life: 1.05 h
[7]
  half-life: 0.35 h
[8]
  EC90: 20 nM
[9]
  log(activity): 4.9
West Nile virus [10]
  EC90: 150 nM
West Nile virus [11]
  log(activity): 4
Dengue virus type 2 [12]
  EC90: 300 nM
Dengue virus type 2 [13]
  log(activity): 3.3
Zika virus [14]
  EC90: 150 nM
Zika virus [15]
  log(activity): 3.5
[16]
  CC50: > 30000 nM

## COc1cc(Nc2cccc(-c3csc(NC(=O)c4cccnc4SC)n3)c2)ccc1C#N
[1]
  CC50 at 24 h: > 30000 nM
Chikungunya virus [2]
  log(activity): 5.1
[3]
  CC50 at 72 h: > 30000 nM
[4]
  solubility kinetic: < 1 µM
[5]
  logD: > 4.33
[6]
  half-life: 0.567 h
[7]
  half-life: 0.417 h
[8]
  EC90: 210 nM
[9]
  log(activity): 2
West Nile virus [10]
  EC90: 1200 nM
West Nile virus [11]
  log(activity): 2.9
Dengue virus type 2 [12]
  EC90: 400 nM
Dengue virus type 2 [13]
  log(activity): 3
Zika virus [14]
  EC90: 500 nM
Zika virus [15]
  log(activity): 3
[16]
  CC50: > 30000 nM
